Measurements reported in ChEMBL document CHEMBL5724914, “Linking interpersonal differences in gut microbiota composition and drug biotransformation activity” (2024).

Conditions: human gut metagenome, 24 h, 2 µM
Also: call rule not given here.

Bacterial Biotransformation	Structure (SMILES)
Compound NOT metabolized	CC(C)(C#N)c1cc(Cn2cncn2)cc(C(C)(C)C#N)c1 [ANASTROZOLE]
Compound NOT metabolized	CNS(=O)(=O)Cc1ccc2[nH]cc(CCN(C)C)c2c1.O=C(O)CCC(=O)O [SUMATRIPTAN SUCCINATE]

Assay: (§1) The drug is tested on Z-001 corresponding to mouse gut metagenome with ENA study accession number: PRJEB37062 and ENA sample accession number: ERS12561801 for biotransformation under anaerobic condition. The drug concentrations were measured over 9 timepoints collected between 0 and 24 hours of incubation by liquid-chromatography-coupled mass spectrometry (LC–MS)
Conditions: 2 µM

Bacterial Biotransformation	Structure (SMILES)
Compound NOT metabolized	CC(C)(C#N)c1cc(Cn2cncn2)cc(C(C)(C)C#N)c1 [ANASTROZOLE]
Compound metabolized	CNS(=O)(=O)Cc1ccc2[nH]cc(CCN(C)C)c2c1.O=C(O)CCC(=O)O [SUMATRIPTAN SUCCINATE]

Assay: as §1, with “Z-030” for “Z-001”, “ERS12561829” for “ERS12561801”
Conditions: 2 µM

Bacterial Biotransformation	Structure (SMILES)
Compound NOT metabolized	CC(C)(C#N)c1cc(Cn2cncn2)cc(C(C)(C)C#N)c1 [ANASTROZOLE]
Compound NOT metabolized	CNS(=O)(=O)Cc1ccc2[nH]cc(CCN(C)C)c2c1.O=C(O)CCC(=O)O [SUMATRIPTAN SUCCINATE]

Assay: as §1, with “Z-004” for “Z-001”, “to” for “to mouse gut”, “ERS12561804” for “ERS12561801”
Conditions: 2 µM

Bacterial Biotransformation	Structure (SMILES)
Compound NOT metabolized	CC(C)(C#N)c1cc(Cn2cncn2)cc(C(C)(C)C#N)c1 [ANASTROZOLE]
Compound NOT metabolized	CNS(=O)(=O)Cc1ccc2[nH]cc(CCN(C)C)c2c1.O=C(O)CCC(=O)O [SUMATRIPTAN SUCCINATE]

Assay: as §1, with “Z-024” for “Z-001”, “pig” for “mouse”, “ERS12561823” for “ERS12561801”
Conditions: 2 µM

Bacterial Biotransformation	Structure (SMILES)
Compound metabolized	CC(C)(C#N)c1cc(Cn2cncn2)cc(C(C)(C)C#N)c1 [ANASTROZOLE]
Compound NOT metabolized	CNS(=O)(=O)Cc1ccc2[nH]cc(CCN(C)C)c2c1.O=C(O)CCC(=O)O [SUMATRIPTAN SUCCINATE]

Assay: as §1, with “Z-028” for “Z-001”, “ERS12561827” for “ERS12561801”
Conditions: 2 µM

Bacterial Biotransformation	Structure (SMILES)
Compound NOT metabolized	CC(C)(C#N)c1cc(Cn2cncn2)cc(C(C)(C)C#N)c1 [ANASTROZOLE]
Compound NOT metabolized	CNS(=O)(=O)Cc1ccc2[nH]cc(CCN(C)C)c2c1.O=C(O)CCC(=O)O [SUMATRIPTAN SUCCINATE]

Assay: as §1, with “Z-010” for “Z-001”, “to” for “to mouse gut”, “ERS12561810” for “ERS12561801”
Conditions: 2 µM

Bacterial Biotransformation	Structure (SMILES)
Compound NOT metabolized	CC(C)(C#N)c1cc(Cn2cncn2)cc(C(C)(C)C#N)c1 [ANASTROZOLE]
Compound NOT metabolized	CNS(=O)(=O)Cc1ccc2[nH]cc(CCN(C)C)c2c1.O=C(O)CCC(=O)O [SUMATRIPTAN SUCCINATE]

Assay: as §1, with “Z-026” for “Z-001”, “to” for “to mouse gut”, “ERS12561825” for “ERS12561801”
Conditions: 2 µM

Bacterial Biotransformation	Structure (SMILES)
Compound NOT metabolized	CC(C)(C#N)c1cc(Cn2cncn2)cc(C(C)(C)C#N)c1 [ANASTROZOLE]
Compound NOT metabolized	CNS(=O)(=O)Cc1ccc2[nH]cc(CCN(C)C)c2c1.O=C(O)CCC(=O)O [SUMATRIPTAN SUCCINATE]

Assay: as §1, with “WLS-370” for “Z-001”, “human” for “mouse”, “ERS12561793” for “ERS12561801”
Conditions: 2 µM

Bacterial Biotransformation	Structure (SMILES)
Compound metabolized	CC(C)(C#N)c1cc(Cn2cncn2)cc(C(C)(C)C#N)c1 [ANASTROZOLE]
Compound NOT metabolized	CNS(=O)(=O)Cc1ccc2[nH]cc(CCN(C)C)c2c1.O=C(O)CCC(=O)O [SUMATRIPTAN SUCCINATE]

Conditions: human gut metagenome, 24 h, 2 µM
Remark: another data set of the same source

Bacterial Biotransformation	Structure (SMILES)
Compound metabolized	CC(C)(C#N)c1cc(Cn2cncn2)cc(C(C)(C)C#N)c1 [ANASTROZOLE]
Compound metabolized	CNS(=O)(=O)Cc1ccc2[nH]cc(CCN(C)C)c2c1.O=C(O)CCC(=O)O [SUMATRIPTAN SUCCINATE]

Assay: as §1, with “Z-020” for “Z-001”, “rabbit” for “mouse”, “ERS12561819” for “ERS12561801”
Conditions: 2 µM

Bacterial Biotransformation	Structure (SMILES)
Compound NOT metabolized	CC(C)(C#N)c1cc(Cn2cncn2)cc(C(C)(C)C#N)c1 [ANASTROZOLE]
Compound NOT metabolized	CNS(=O)(=O)Cc1ccc2[nH]cc(CCN(C)C)c2c1.O=C(O)CCC(=O)O [SUMATRIPTAN SUCCINATE]

Conditions: human gut metagenome, 24 h, 2 µM
Remark: another data set of the same source

Bacterial Biotransformation	Structure (SMILES)
Compound NOT metabolized	CC(C)(C#N)c1cc(Cn2cncn2)cc(C(C)(C)C#N)c1 [ANASTROZOLE]
Compound NOT metabolized	CNS(=O)(=O)Cc1ccc2[nH]cc(CCN(C)C)c2c1.O=C(O)CCC(=O)O [SUMATRIPTAN SUCCINATE]

Assay: as §1, with “WLS-090” for “Z-001”, “human” for “mouse”, “ERS12561753” for “ERS12561801”
Conditions: 2 µM

Bacterial Biotransformation	Structure (SMILES)
Compound metabolized	CC(C)(C#N)c1cc(Cn2cncn2)cc(C(C)(C)C#N)c1 [ANASTROZOLE]
Compound metabolized	CNS(=O)(=O)Cc1ccc2[nH]cc(CCN(C)C)c2c1.O=C(O)CCC(=O)O [SUMATRIPTAN SUCCINATE]

Conditions: human gut metagenome, 24 h, 2 µM
Remark: another data set of the same source

Bacterial Biotransformation	Structure (SMILES)
Compound metabolized	CC(C)(C#N)c1cc(Cn2cncn2)cc(C(C)(C)C#N)c1 [ANASTROZOLE]
Compound metabolized	CNS(=O)(=O)Cc1ccc2[nH]cc(CCN(C)C)c2c1.O=C(O)CCC(=O)O [SUMATRIPTAN SUCCINATE]

Conditions: human gut metagenome, 24 h, 2 µM
Remark: another data set of the same source

Bacterial Biotransformation	Structure (SMILES)
Compound metabolized	CC(C)(C#N)c1cc(Cn2cncn2)cc(C(C)(C)C#N)c1 [ANASTROZOLE]
Compound metabolized	CNS(=O)(=O)Cc1ccc2[nH]cc(CCN(C)C)c2c1.O=C(O)CCC(=O)O [SUMATRIPTAN SUCCINATE]

Assay: as §1, with “Z-002” for “Z-001”, “rabbit” for “mouse”, “ERS12561802” for “ERS12561801”
Conditions: 2 µM

Bacterial Biotransformation	Structure (SMILES)
Compound metabolized	CC(C)(C#N)c1cc(Cn2cncn2)cc(C(C)(C)C#N)c1 [ANASTROZOLE]
Compound metabolized	CNS(=O)(=O)Cc1ccc2[nH]cc(CCN(C)C)c2c1.O=C(O)CCC(=O)O [SUMATRIPTAN SUCCINATE]

Assay: as §1, with “Z-027” for “Z-001”, “to” for “to mouse gut”, “ERS12561826” for “ERS12561801”
Conditions: 2 µM

Bacterial Biotransformation	Structure (SMILES)
Compound NOT metabolized	CC(C)(C#N)c1cc(Cn2cncn2)cc(C(C)(C)C#N)c1 [ANASTROZOLE]
Compound NOT metabolized	CNS(=O)(=O)Cc1ccc2[nH]cc(CCN(C)C)c2c1.O=C(O)CCC(=O)O [SUMATRIPTAN SUCCINATE]

Conditions: human gut metagenome, 24 h, 2 µM
Remark: another data set of the same source

Bacterial Biotransformation	Structure (SMILES)
Compound NOT metabolized	CC(C)(C#N)c1cc(Cn2cncn2)cc(C(C)(C)C#N)c1 [ANASTROZOLE]
Compound NOT metabolized	CNS(=O)(=O)Cc1ccc2[nH]cc(CCN(C)C)c2c1.O=C(O)CCC(=O)O [SUMATRIPTAN SUCCINATE]

Conditions: human gut metagenome, 24 h, 2 µM
Remark: another data set of the same source

Bacterial Biotransformation	Structure (SMILES)
Compound NOT metabolized	CC(C)(C#N)c1cc(Cn2cncn2)cc(C(C)(C)C#N)c1 [ANASTROZOLE]
Compound metabolized	CNS(=O)(=O)Cc1ccc2[nH]cc(CCN(C)C)c2c1.O=C(O)CCC(=O)O [SUMATRIPTAN SUCCINATE]

Assay: as §1, with “WLS-170” for “Z-001”, “human” for “mouse”, “ERS12561762” for “ERS12561801”
Conditions: 2 µM

Bacterial Biotransformation	Structure (SMILES)
Compound metabolized	CC(C)(C#N)c1cc(Cn2cncn2)cc(C(C)(C)C#N)c1 [ANASTROZOLE]
Compound NOT metabolized	CNS(=O)(=O)Cc1ccc2[nH]cc(CCN(C)C)c2c1.O=C(O)CCC(=O)O [SUMATRIPTAN SUCCINATE]
